Laboratory results published in patent US20250320193A1, “OXOISOINDOLINYL SUBSTITUTED PIPERIDINEDIONE DERIVATIVE AND USE THEREOF” (GLUETACS THERAPEUTICS (SHANGHAI) CO., LTD., priority 2022, published 2025).

How the values were obtained:
Assay type in all cases: cell-based
Details in all cases: hPBMC, compound 500 nM, 24 hours, Western blot
IKZF1 = IKZF1 (Homo sapiens (Human), UniProt Q13422+Q96SW2); test: Western blot, substrate protein expression in hPBMC: IKZF1
Protocol: (§1) The effect of the compounds of the present disclosure on the expression of target proteins in cells was detected using conventional Western blot analysis.
(§2) Human peripheral blood mononuclear cells (hPBMCs) at a density of 1×10^6 cells/mL were thawed according to the PBMC Recovery Protocol (Milecell Biotechnologies Inc, Shanghai). […] After 24 hours of compounds treatment, cells were harvested and lysed in RIPA protein lysate containing phosphatase inhibitors on ice for 30-60 min, followed by centrifugation. The supernatant was aspirated as the extracted total cell protein. The protein concentration of the supernatant was determined using the conventional BCA (Bicinchoninic Acid) assay. The supernatant was then mixed with 4× SDS sample loading buffer, denatured at 95° C. for 5 minutes, and then subjected to SDS-PAGE electrophoresis on a polyacrylamide gel. Proteins were then transferred to a nitrocellulose (NC) membrane, blocked at room temperature for 1-2 h, and processed for antibody incubation and detection according to the manufacturer's instructions (Cell Signaling Technology).
(§3) Half-Maximal Degradation Concentration value (the drug concentration required for degrading proteins by 50%, abbreviated as DC50) reads method: comparing the grayscale values of Western blot bands from drug-treated samples (protein degrader compounds) with those from blank (DMSO-treated) controls, and identifying the drug concentration range at which the grayscale value is half that of the DMSO-treated control bands.
(§4) DC50 values can be calculated using ImageJ software to measure grayscale values of Western blot bands from drug-treated samples. The relationship curve between drug concentration and grayscale values is fitted to estimate the drug concentration corresponding to half the grayscale value.
(§5) Target protein remaining (%) refers to the percentage of target protein remaining in hPBMC cells after treatment with protein degrader compounds.
(§6) Calculation method for protein remaining (%): Use ImageJ software to measure grayscale values of Western blot bands from drug (protein degrader)-treated samples. The grayscale value of drug-treated bands is divided by that of internal control protein bands, and the resulting quotient is normalized to obtain the relative percentage of remaining target protein after protein degrader treatment.
(§7) Target protein degradation rate (%)=100%-target protein remaining (%).

IKZF3 = IKZF3 (Homo sapiens (Human), UniProt Q96SW2+Q9UKT9); test: Western blot, substrate protein expression in hPBMC: IKZF3
Chain of IKZF3 (Q9UKT9 whole entry): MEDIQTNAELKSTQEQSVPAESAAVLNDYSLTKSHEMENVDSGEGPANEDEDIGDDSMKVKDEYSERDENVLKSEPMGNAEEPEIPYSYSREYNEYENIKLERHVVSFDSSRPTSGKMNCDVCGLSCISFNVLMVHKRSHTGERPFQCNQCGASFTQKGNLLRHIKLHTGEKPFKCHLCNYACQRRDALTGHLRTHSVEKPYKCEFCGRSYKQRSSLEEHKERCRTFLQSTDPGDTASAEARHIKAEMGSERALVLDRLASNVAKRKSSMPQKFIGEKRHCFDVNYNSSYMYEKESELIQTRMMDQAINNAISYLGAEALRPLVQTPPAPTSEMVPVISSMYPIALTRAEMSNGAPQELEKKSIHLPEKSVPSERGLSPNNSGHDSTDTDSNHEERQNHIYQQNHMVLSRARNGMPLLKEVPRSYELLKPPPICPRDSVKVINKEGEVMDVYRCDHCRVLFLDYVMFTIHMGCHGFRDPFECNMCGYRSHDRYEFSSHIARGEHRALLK
Chain of IKZF3 (Q96SW2 whole entry): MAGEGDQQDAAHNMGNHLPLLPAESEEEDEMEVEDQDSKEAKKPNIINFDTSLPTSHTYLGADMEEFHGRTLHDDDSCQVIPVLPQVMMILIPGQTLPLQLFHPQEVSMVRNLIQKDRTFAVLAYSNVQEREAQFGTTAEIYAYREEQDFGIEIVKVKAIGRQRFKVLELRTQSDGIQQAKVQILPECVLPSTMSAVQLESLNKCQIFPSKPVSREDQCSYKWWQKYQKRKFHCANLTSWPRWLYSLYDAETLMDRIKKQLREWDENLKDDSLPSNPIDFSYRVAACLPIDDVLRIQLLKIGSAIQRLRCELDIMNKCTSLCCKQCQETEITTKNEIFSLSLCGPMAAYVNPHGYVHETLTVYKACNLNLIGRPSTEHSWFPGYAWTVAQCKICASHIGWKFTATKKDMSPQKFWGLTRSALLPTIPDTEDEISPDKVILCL
Chain of IKZF3 (Q16531 whole entry partner): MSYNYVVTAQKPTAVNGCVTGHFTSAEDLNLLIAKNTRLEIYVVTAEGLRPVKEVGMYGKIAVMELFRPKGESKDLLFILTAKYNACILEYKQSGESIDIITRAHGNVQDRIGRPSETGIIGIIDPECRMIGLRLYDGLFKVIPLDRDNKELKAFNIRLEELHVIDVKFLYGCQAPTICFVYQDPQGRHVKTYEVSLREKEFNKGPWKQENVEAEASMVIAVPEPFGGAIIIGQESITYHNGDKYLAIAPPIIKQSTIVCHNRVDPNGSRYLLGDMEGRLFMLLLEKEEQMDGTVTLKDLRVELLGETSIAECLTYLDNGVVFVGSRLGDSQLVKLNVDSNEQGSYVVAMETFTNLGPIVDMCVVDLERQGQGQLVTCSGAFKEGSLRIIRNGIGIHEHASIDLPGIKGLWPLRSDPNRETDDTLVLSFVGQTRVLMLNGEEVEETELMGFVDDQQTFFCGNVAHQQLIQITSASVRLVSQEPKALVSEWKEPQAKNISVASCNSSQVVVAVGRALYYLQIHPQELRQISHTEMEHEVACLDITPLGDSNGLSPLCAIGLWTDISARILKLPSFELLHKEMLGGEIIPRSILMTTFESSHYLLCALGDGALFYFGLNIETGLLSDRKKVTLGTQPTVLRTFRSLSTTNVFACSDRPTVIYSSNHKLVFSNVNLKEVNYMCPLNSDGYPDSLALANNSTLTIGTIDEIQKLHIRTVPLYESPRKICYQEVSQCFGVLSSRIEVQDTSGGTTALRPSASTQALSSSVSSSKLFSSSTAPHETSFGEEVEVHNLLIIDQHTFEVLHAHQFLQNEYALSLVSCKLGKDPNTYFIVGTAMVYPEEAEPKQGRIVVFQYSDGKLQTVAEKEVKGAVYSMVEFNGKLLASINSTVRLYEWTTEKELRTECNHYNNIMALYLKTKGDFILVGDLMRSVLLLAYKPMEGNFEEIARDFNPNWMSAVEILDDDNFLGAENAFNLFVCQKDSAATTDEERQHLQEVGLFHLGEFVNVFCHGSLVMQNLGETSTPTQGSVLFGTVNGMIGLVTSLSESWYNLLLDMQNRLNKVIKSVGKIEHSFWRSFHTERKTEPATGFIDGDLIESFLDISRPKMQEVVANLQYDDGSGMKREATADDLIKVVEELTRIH
Protocol: as §1, §2, §3, §4, §5, §6, §7

GSPT1 = GSPT1 (Homo sapiens (Human), UniProt P15170+Q96SW2); test: Western blot, substrate protein expression in hPBMC: GSPT1
Chain of GSPT1 (P15170 whole entry): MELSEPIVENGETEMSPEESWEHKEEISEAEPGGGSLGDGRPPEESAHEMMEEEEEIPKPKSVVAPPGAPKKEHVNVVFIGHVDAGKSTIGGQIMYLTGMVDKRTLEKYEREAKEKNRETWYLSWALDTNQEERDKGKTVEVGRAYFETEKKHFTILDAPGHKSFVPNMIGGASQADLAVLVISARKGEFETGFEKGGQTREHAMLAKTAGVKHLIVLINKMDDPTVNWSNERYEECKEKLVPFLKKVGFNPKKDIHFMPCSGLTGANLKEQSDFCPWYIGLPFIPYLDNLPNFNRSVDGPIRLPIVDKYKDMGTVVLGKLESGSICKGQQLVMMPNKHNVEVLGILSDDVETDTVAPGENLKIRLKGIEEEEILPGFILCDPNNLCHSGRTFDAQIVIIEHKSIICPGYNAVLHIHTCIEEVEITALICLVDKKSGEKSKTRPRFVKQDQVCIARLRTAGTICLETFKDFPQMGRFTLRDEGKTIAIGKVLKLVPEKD
Chain of GSPT1 (Q96SW2 whole entry): as the sequence (Q96SW2 whole entry) above
Chain of GSPT1 (Q16531 whole entry partner): as the sequence (Q16531 whole entry partner) above
Protocol: as §1, §2, §3, §4, §5, §6, §7

Chain of IKZF1 (Q13422 whole entry): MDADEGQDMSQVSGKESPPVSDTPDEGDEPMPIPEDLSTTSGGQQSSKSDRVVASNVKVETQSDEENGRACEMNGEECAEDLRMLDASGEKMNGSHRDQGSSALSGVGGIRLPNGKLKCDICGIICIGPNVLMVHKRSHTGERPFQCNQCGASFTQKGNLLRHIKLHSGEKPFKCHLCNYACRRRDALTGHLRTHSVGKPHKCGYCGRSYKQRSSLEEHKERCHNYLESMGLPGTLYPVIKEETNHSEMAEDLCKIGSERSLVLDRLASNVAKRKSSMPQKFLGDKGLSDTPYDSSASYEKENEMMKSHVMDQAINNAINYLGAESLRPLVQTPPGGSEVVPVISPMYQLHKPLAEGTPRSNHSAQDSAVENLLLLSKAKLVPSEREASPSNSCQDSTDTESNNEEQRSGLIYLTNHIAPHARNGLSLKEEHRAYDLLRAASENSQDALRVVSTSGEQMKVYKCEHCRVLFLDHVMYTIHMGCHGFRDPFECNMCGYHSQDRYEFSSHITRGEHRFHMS
Chain of IKZF1 (Q96SW2 whole entry): as the sequence (Q96SW2 whole entry) above
Chain of IKZF1 (Q16531 whole entry partner): as the sequence (Q16531 whole entry partner) above

Row | Structure (SMILES) | substrate protein remaining % IKZF1 (IKZF1) | substrate protein remaining % IKZF3 (IKZF3) | substrate protein remaining % GSPT1 (GSPT1)
1 | O=C1CCC(N2Cc3cc(C(=O)N4C5CC4CN(C(c4ccccc4)c4ccccc4)C5)ccc3C2=O)C(=O)N1 (stereo not drawn) [GT-05891, 3-(5-(3-benzhydryl-3,6-diazabicyclo[3.1.1]heptane-6-carbonyl)-1-oxoisoindolin-2-yl)piperidine-2,6-dione] | B (B represents substrate protein remaining % > 50%) | B (B represents substrate protein remaining % > 50%) | A (A represents 0% ≤ substrate protein remaining % ≤ 50%)
2 | O=C1CCC(N2Cc3cc(C(=O)N4CCCN(C(c5ccccc5)c5ccccc5)CC4)ccc3C2=O)C(=O)N1 (stereo not drawn) [GT-05892, 3-(5-(4-benzhydryl-1,4-diazepane-1-carbonyl)-1-oxoisoindolin-2-yl)piperidine-2,6-dione] | B (B represents substrate protein remaining % > 50%) | B (B represents substrate protein remaining % > 50%) | A (A represents 0% ≤ substrate protein remaining % ≤ 50%)
3 | O=C1CCC(N2C(=O)c3ccc(CN4CCN(C5c6ccccc6-c6ccccc65)CC4)cc3C2=O)C(=O)N1 (stereo not drawn) [GT-05908, 5-((4-(9H-fluoren-9-yl)piperazin-1-yl)methyl)-2-(2,6-dioxopiperidin-3-yl) isoindoline-1,3-dione] | A (A represents 0% ≤ substrate protein remaining % ≤ 50%) | A (A represents 0% ≤ substrate protein remaining % ≤ 50%) | A (A represents 0% ≤ substrate protein remaining % ≤ 50%)
4 | O=C1CCC(N2C(=O)c3ccc(C(=O)N4CCC(N(c5ccccc5)c5ccccn5)CC4)cc3C2=O)C(=O)N1 (stereo not drawn) [GT-05925, 2-(2,6-dioxopiperidin-3-yl)-5-(4-(phenyl(pyridin-2-yl)amino)piperidine-1-carbonyl) isoindoline-1,3-dione] | B (B represents substrate protein remaining % > 50%) | B (B represents substrate protein remaining % > 50%) | A (A represents 0% ≤ substrate protein remaining % ≤ 50%)
5 | O=C1CCC(N2C(=O)c3ccc(C(=O)N4CCC(N(c5ccccc5)c5ccccc5)CC4)cc3C2=O)C(=O)N1 (stereo not drawn) [GT-05928, 2-(2,6-dioxopiperidin-3-yl)-5-(4-(diphenylamino)piperidine-1-carbonyl) isoindoline-1,3-dione] | B (B represents substrate protein remaining % > 50%) | B (B represents substrate protein remaining % > 50%) | A (A represents 0% ≤ substrate protein remaining % ≤ 50%)
6 | O=C1CCC(N2C(=O)c3cc(F)c(N4C5CCC4CN(C(c4ccccc4)c4ccccc4)C5)cc3C2=O)C(=O)N1 (stereo not drawn) [GT-05932, 5-(3-benzhydryl-3,8-diazabicyclo[3.2.1]octan-8-yl)-2-(2,6-dioxopiperidin-3-yl)-6-fluoroisoindoline-1,3-dione] | B (B represents substrate protein remaining % > 50%) | B (B represents substrate protein remaining % > 50%) | A (A represents 0% ≤ substrate protein remaining % ≤ 50%)
7 | O=C1CCC(N2C(=O)c3cc(F)c(N4CC5CC(C4)N5C(c4ccccc4)c4ccccc4)cc3C2=O)C(=O)N1 (stereo not drawn) [GT-05934, 5-(6-benzhydryl-3,6-diazabicyclo[3.1.1]heptan-3-yl)-2-(2,6-dioxopiperidin-3-yl)-6-fluoroisoindoline-1,3-dione] | B (B represents substrate protein remaining % > 50%) | A (A represents 0% ≤ substrate protein remaining % ≤ 50%) | A (A represents 0% ≤ substrate protein remaining % ≤ 50%)
8 | O=C1CCC(N2C(=O)c3ccc(N4C5CCC4CN(C(c4ccccc4)c4ccccc4)C5)cc3C2=O)C(=O)N1 (stereo not drawn) [GT-05937, 5-(3-benzhydryl-3,8-diazabicyclo[3.2.1]octan-8-yl)-2-(2,6-dioxopiperidin-3-yl) isoindoline-1,3-dione] | B (B represents substrate protein remaining % > 50%) | B (B represents substrate protein remaining % > 50%) | A (A represents 0% ≤ substrate protein remaining % ≤ 50%)
9 | O=C1CCC(N2C(=O)c3ccc(N4C5CC4CN(C(c4ccccc4)c4ccccc4)C5)cc3C2=O)C(=O)N1 (stereo not drawn) [GT-05938, 5-(3-benzhydryl-3,6-diazabicyclo[3.1.1]heptan-6-yl)-2-(2,6-dioxopiperidin-3-yl) isoindoline-1,3-dione] | B (B represents substrate protein remaining % > 50%) | B (B represents substrate protein remaining % > 50%) | A (A represents 0% ≤ substrate protein remaining % ≤ 50%)
10 | O=C1CCC(N2C(=O)c3ccc(CN4C[C@H]5C[C@@H]4CN5C(c4ccccc4)c4ccccc4)cc3C2=O)C(=O)N1 (stereo partly drawn) [GT-05959, 5-(((1R,4R)-5-benzhydryl-2,5-diazabicyclo[2.2.1]heptan-2-yl)methyl)-2-(2,6-dioxopiperidin-3-yl) isoindoline-1,3-dione] | B (B represents substrate protein remaining % > 50%) | B (B represents substrate protein remaining % > 50%) | A (A represents 0% ≤ substrate protein remaining % ≤ 50%)
11 | CC1CN(Cc2ccc3c(c2)C(=O)N(C2CCC(=O)NC2=O)C3=O)CC(C)N1C(c1ccccc1)c1ccccc1 (stereo not drawn) [GT-05968, 5-((4-benzhydryl-3,5-dimethylpiperazin-1-yl)methyl)-2-(2,6-dioxopiperidin-3-yl) isoindoline-1,3-dione] | B (B represents substrate protein remaining % > 50%) | B (B represents substrate protein remaining % > 50%) | A (A represents 0% ≤ substrate protein remaining % ≤ 50%)
12 | O=C1CCC(N2C(=O)c3ccc(C(=O)N4CC5CCC(C4)N5C(c4ccccc4)c4ccccc4)cc3C2=O)C(=O)N1 (stereo not drawn) [GT-05982, 5-(8-benzhydryl-3,8-diazabicyclo[3.2.1]octane-3-carbonyl)-2-(2,6-dioxopiperidin-3-yl) isoindoline-1,3-dione] | B (B represents substrate protein remaining % > 50%) | B (B represents substrate protein remaining % > 50%) | A (A represents 0% ≤ substrate protein remaining % ≤ 50%)
13 | C[C@@H]1CN(C(c2ccccc2)c2ccccc2)CCN1Cc1ccc2c(c1)C(=O)N(C1CCC(=O)NC1=O)C2=O (stereo partly drawn) [GT-06047, 5-(((R)-4-benzhydryl-2-methylpiperazin-1-yl)methyl)-2-(2,6-dioxopiperidin-3-yl) isoindoline-1,3-dione] | B (B represents substrate protein remaining % > 50%) | B (B represents substrate protein remaining % > 50%) | A (A represents 0% ≤ substrate protein remaining % ≤ 50%)
14 | O=C1CCC(N2C(=O)c3ccc(CN4CCN(C5c6cc(Cl)ccc6-c6ccc(Cl)cc65)CC4)cc3C2=O)C(=O)N1 (stereo not drawn) [GT-06049, 5-((4-(2,7-dichloro-9H-fluoren-9-yl)piperazin-1-yl)methyl)-2-(2,6-dioxopiperidin-3-yl) isoindoline-1,3-dione] | B (B represents substrate protein remaining % > 50%) | A (A represents 0% ≤ substrate protein remaining % ≤ 50%) | A (A represents 0% ≤ substrate protein remaining % ≤ 50%)
15 | O=C1CCC(N2C(=O)c3ccc(CN4CC5CN(C(c6ccccc6)c6ccccc6)CC5C4)cc3C2=O)C(=O)N1 (stereo not drawn) [GT-06053, 5-((5-benzhydrylhexahydropyrrolo[3,4-c]pyrrol-2 (1H)-yl)methyl)-2-(2,6-dioxopiperidin-3-yl) isoindoline-1,3-dione] | B (B represents substrate protein remaining % > 50%) | B (B represents substrate protein remaining % > 50%) | A (A represents 0% ≤ substrate protein remaining % ≤ 50%)
16 | O=C1CCC(N2C(=O)c3ccc(C(=O)N4CC5CN(C(c6ccccc6)c6ccccc6)CC5C4)cc3C2=O)C(=O)N1 (stereo not drawn) [GT-06068, 5-(5-benzhydryloctahydropyrrolo[3,4-c]pyrrole-2-carbonyl)-2-(2,6-dioxopiperidin-3-yl) isoindoline-1,3-dione] | B (B represents substrate protein remaining % > 50%) | B (B represents substrate protein remaining % > 50%) | A (A represents 0% ≤ substrate protein remaining % ≤ 50%)
